Measurements taken from patent US20120190703A1, “SALTS OF 13A-(S)DESOXYTYLOPHORININE, PREPARATION METHODS AND PHARMACEUTICAL COMPOSITIONS AND USES THEREOF” (priority 2009, published 2012).
Like-named read-outs stand apart in the source and are kept apart here. Marks after values point to notes of the source that are not given here.

Assays:
mice Lewis lung cancer = settings: background art; cited from earlier work
H22 tumor-bearing mice = settings: intragastric once daily
Source text: To determine the pharmacodynamic characters of 13a-(S)-deoxytylophorinine and its salts, the impact of these compounds to the tumor growth in H22 tumor-bearing mice was surveyed.
Male Kunming mice were obtained from the Laboratory Animal Center, Academy of Military Medical Science. Body weight 18˜22 g. 6 animals per group, totally 10 groups, 60 animals.
(+)-13a-(S)-deoxytylophorinine, (+)-13a-(S)-deoxytylophorinine Tartrate, (+)-13a-(S)-deoxytylophorinine Maleate, (+)-13a-(S)-deoxytylophorinine Citrate, Cytoxane (CTX) as positive control.
(+)-13a-(S)-deoxytylophorinine was administered at high dose (5 mg/kg) and low dose (2.5 mg/kg). Three (+)-13a-(S)-deoxytylophorinine salts were administered at high dose and low dose as equal moles with their prototype (Tartrate: 7.05 mg/kg, 3.53 mg/kg; Malate: 6.60 mg/kg, 3.30 mg/kg; Citrate: 7.90 mg/kg, 3.95 mg/kg).
Animals were reared in SPF grade circumstance to be observed for 24 h. The tumor cells liquid which resuscitated in abdominal cavity of KM mice was diluted with aseptic normal saline at 1:3 ratio. The resulting liquid was inoculated subcutaneously at forelimb with 0.2 mL every animal. After the injection over, the animals were divided to […] with 6 animals per group.
Four experimental samples were intragastric administered once daily 24 h after inoculation. The positive control CTX was intraperitoneal injected once daily. The animal body weight was recorded every day.

[1] = Plasma pharmacokinetics after oral administration in mice; settings: plasma
Procedure: To determine the pharmacokinetic characters of 13a-(S)-deoxytylophorinine and its salts, the studies about plasma pharmacokinetics and the character of distribution in brain were pursued.
Male ICR mice. Body weight 18˜22 g.
(+)-13a-(S)-deoxytylophorinine Tartrate, (+)-13a-(S)-deoxytylophorinine Maleate, (+)-13a-(S)-deoxytylophorinine Citrate. All were dissolved in distilled water as 0.6 mg/ml solution before experiment progressed.
72 mice were divided to 3 groups with 24 animals per group, fasting for 16 h and drinking water freely. […] Plasma was isolated by centrifugalization. After the salts were administered orally, the brain tissues of mice were collected at 5 min, 15 min, 2 h time points. 25% tissue homogenate was prepared with normal saline addition. 200 μL of homogenate and plasma were added isovolumic MeCN to precipitate protein. 5 μL of clear supernatant was analyzed by LC/MS/MS.
(+)-13a-(S)-deoxytylophorinine was dissolved in DMSO and then diluted with MeOH with concentration 10, 50, 100, 500, 1000 and 2500 ng/ml respectively. 10 μl of standard solutions of (+)-13a-(S)-deoxytylophorinine with different concentration above were added to 200 μl of blank plasma sequently to adjust the concentration to 0.5, 2.5, 5, 25, 50, 125 ng/ml respectively. MeCN was added to the solution to precipitate protein, and 5 μl of result clear supernatant was analyzed with LC/MS/MS. Linear regression was ran with the peak area of (+)-13a-(S)-deoxytylophorinine as ordinate and the concentrations as abscissa.

Solubility in water = format: physicochemical
[2] = preliminary toxic experiments, background art; cited from earlier work
mice H22 liver cancer = settings: background art; cited from earlier work
[3] = tested on: Bel7402 human liver cancer cell; test: Cytotoxic activity assay (MTT), Bel7402; format: cell-based; settings: Bel-7402, 120 h, 5 days
Procedure: (§1) To evaluate the in vitro antitumor activity of (+)-13a-(S)-Deoxytylophorinine salts in this invention, Cytotoxic activity assay (MTT) experiment was persued.
(§2) 1. Tumor cells at log phase were incubated on 96-well plates at a density of 1˜1.0×10^4 cells/ml, 100 μl/well. Cells were cultured for 24 h at 37° C. in a cell incubator with 5% CO2.
(§3) 2. The treatment cells were exposed to the tested agents at different concentrations and cultured for 5 days in a cell incubator with full humidity incubator.
(§4) 3. The incubation medium was removed, then 100 μl 0.04% MTT was added to each well and Cells were cultured for 4 hours under the same conditions.
(§5) 4. The incubation medium was removed, then 150 μl DMSO was added to each well, the absorbance at a reference wavelength of 450 nm and a test wavelength of 570 nm was read. Drug inhibitory rate was calculated.

[4] = tested on: Hct8 human colon cancer cell; test: Cytotoxic activity assay (MTT), Hct8; format: cell-based; settings: HCT-8, 120 h, 5 days
Procedure: as §1, §2, §3, §4, §5

[5] = high dose × 7 d, equal moles: prototype 5.0, tartrate 7.05, maleate 6.60, citrate 7.90 mg/kg
[6] = low dose × 7 d, equal moles: prototype 2.5, tartrate 3.53, maleate 3.30, citrate 3.95 mg/kg

Q: With `COc1ccc2c3c(c4cc(OC)c(OC)cc4c2c1)CN1CCC[C@H]1C3` [(+)-13a-(S)-deoxytylophorinine, reference compound] as the compound, how does the “Anti-tumor proliferative activity, mice Lewis lung cancer” value (mice Lewis lung cancer) read?
A: The value was “notable anti-tumor proliferative activity”.

Q: And the “Animal No. (Initial/Final)” value (H22 tumor-bearing mice; [5])?
A: The value was 6/4.

Q: And the “Body Weight(g) Final” value (H22 tumor-bearing mice; [5])?
A: Its value is 15.63 ± 2.16 g.

Q: What about the “Body Weight(g) Initial” value (H22 tumor-bearing mice; [5]) of the same compound?
A: The value was 23.50 ± 2.51 g⁻¹.

Q: And the “Inhibition (%)” value (H22 tumor-bearing mice; [5])?
A: Its value is 74.02** %.

Q: And the “Tumor Weight (g, mean ± SD)” value (H22 tumor-bearing mice; [5])?
A: The value was 0.30 ± 0.12 g.

Q: And the “Animal No. (Initial/Final)” value (H22 tumor-bearing mice; [6])?
A: The value was 6/6.

Q: And the “Body Weight(g) Final” value (H22 tumor-bearing mice; [6])?
A: The value was 23.31 ± 2.14 g.

Q: And the “Body Weight(g) Initial” value (H22 tumor-bearing mice; [6])?
A: Its value is 23.00 ± 1.55 g⁻¹.

Q: What about the “Inhibition (%)” value (H22 tumor-bearing mice; [6]) of the same compound?
A: The value was 42.79* %.

Q: And the “Tumor Weight (g, mean ± SD)” value (H22 tumor-bearing mice; [6])?
A: The value was 0.66 ± 0.21 g.

Q: What about the t½z ([1]; 6 mg/kg oral, mice, non-compartment model) of the same compound?
A: The t½z was 26.4 min.

Q: What about the AUC(0-inf) ([1]; male, ICR, mouse, po, 6 mg/kg) of the same compound?
A: The AUC(0-inf) was 33.7 ng·h/mL.

Q: And the AUC(0-t) ([1]; male, ICR, mouse, po, 6 mg/kg)?
A: The AUC(0-t) was 33.3 ng·h/mL.

Q: And the Cmax ([1]; male, ICR, mouse, po, 6 mg/kg)?
A: The Cmax was 41.5 ng/mL.

Q: And the MRT inf ([1]; male, ICR, mouse, po, 6 mg/kg)?
A: Its MRT inf is 48 min.

Q: What about the MRT last ([1]; male, ICR, mouse, po, 6 mg/kg) of the same compound?
A: The MRT last was 46.2 min.

Q: And the Tmax ([1]; male, ICR, mouse, po, 6 mg/kg)?
A: Its Tmax is 15 min.

Q: And the Solubility in water (Solubility in water)?
A: The Solubility in water was “Insoluble”.

Q: What about the “Solubility in water (words)” value (Solubility in water; statement in text, listed as 13a-(S)-Deoxytylophorinine) of the same compound?
A: The value was “insoluble in water”.

Q: What about the “Solubility in water (words)” value (Solubility in water; statement in text, listed as (+)-13a-(S)-Deoxytylophorinine) of the same compound?
A: Its value is “can not be dissolved in water”.

Q: And the “Toxicity in the liver and kidney” value [2]?
A: The value was “not toxic in the liver and kidney”.

Q: What about the “Anti-tumor proliferative activity, mice H22 liver cancer” value (mice H22 liver cancer) of the same compound?
A: The value was “notable anti-tumor proliferative activity”.

Q: With `CC(O)C(=O)O.COc1ccc2c3c(c4cc(OC)c(OC)cc4c2c1)CN1CCC[C@H]1C3` [Lactate, (+)-13a-(S)-deoxytylophorinine Lactate] as the compound, how does the IC50 [3] read?
A: Its IC50 is 40 nM.

Q: And the IC50 [4]?
A: Its IC50 is 79 nM.

Q: And the “Solubility in water (words)” value (Solubility in water)?
A: The value was “soluble in water”.

Q: What about the solubility (Solubility in water; water) of the same compound?
A: Its solubility is 120 mg/mL.
